Source: patent US20240270732A1, “RECEPTOR-INTERACTING PROTEIN INHIBITOR, PREPARATION METHOD THEREFOR, AND USE THEREOF” (CHENGDU BIOBEL BIOTECHNOLOGY CO., LTD, priority 2021, published 2024)

Experiments:
[1] = tested on: human colon cancer cells HT-29; experiment: Inhibition of necrosis of HT-29 cells induced by TNF-α (CellTiter-Glo); type: cell-based; conditions: TNF-α 100 ng/ml + AT-406 1 μM + z-VAD-FMK 20 μM, 24 h
Method: (§1) After the cells were incubated in a 5% CO2 incubator at 37° C. for 24 h, the test compound of the present invention and the control compound were diluted to the corresponding pre-determined concentration using the medium, and added to the 384-well plate at 5 μL/well. […] Then, 30 μL of CellTiter-Glo luminescent solution was added to each well, and shaken for 2 min. After standing at room temperature for 10 min, the absorbance was measured using ELISA. […] A is the group without necrosis-inducing agents, and B is the group with necrosis-inducing agents. […] A is the group without necrosis-inducing agents, B is the group with necrosis-inducing agents, and X is the group with compounds and necrosis-inducing agents.

HacaT cells = experiment: Inhibition of necrosis of HacaT cells induced by TNF-α (CellTiter-Glo); type: cell-based; conditions: Homo sapiens, TNF-α 100 ng/ml + AT-406 1 μM + z-VAD-FMK 20 μM, 24 h
Method: […] (purchased from ATCC) in logarithmic growth phase were collected and resuspended in 1640 medium, and then the cell concentration was adjusted to 20 cells/μL, to obtain cell suspension, which was seeded in 384-well plate, with 20 μL cell suspension for each well. After the cells were cultured in a 5% CO2 incubator at 37° C. for 24 h, the test compound of the present invention and the control compound were diluted to the corresponding pre-determined concentration using the medium, and added to the 384-well plate at 5 µL/well. […] Then, 30 μL of CellTiter-Glo luminescent solution was added to each well, and shaken for 2 min. After standing at room temperature for 10 min, the absorbance was measured using ELISA. […] A is the group without necrosis-inducing agents, and B is the group with necrosis-inducing agents.

[2] = tested on: human pancreatic cancer cells PANC-1; experiment: Inhibition of necrosis of PANC-1 cells induced by TNF-α (CellTiter-Glo); type: cell-based; conditions: TNF-α 100 ng/ml + AT-406 1 μM + z-VAD-FMK 20 μM, 24 h
Method: as §1

U937 cells = experiment: Inhibition of necrosis of U937 cells induced by TNF-α (CellTiter-Glo); type: cell-based; conditions: Homo sapiens, U-937; TNF-α 100 ng/ml + AT-406 1 μM + z-VAD-FMK 20 μM, 24 h
Method: After the cells were incubated in a 5% CO2 incubator at 37° C. for 24 h, the test compound of the present invention and the control compound were diluted to the corresponding pre-determined concentration using the medium, and added to the 384-well plate at 5 μL/well. […] Then, 30 μL of CellTiter-Glo luminescent solution was added to each well, and shaken for 2 min. After standing at room temperature for 10 min, the absorbance was measured using an enzyme-linked immunosorbent assay (ELISA). […] A is the group without necrosis-inducing agents, and B is the group with necrosis-inducing agents.

human RIP1 kinase = human RIP1 kinase (Homo sapiens (Human), UniProt Q13546); experiment: Inhibitory activity on RIP1 kinase (ADP-Glo); type: biochemical; conditions: human RIP kinase 25 nM
human RIP1 kinase, sequence (Q13546 whole entry): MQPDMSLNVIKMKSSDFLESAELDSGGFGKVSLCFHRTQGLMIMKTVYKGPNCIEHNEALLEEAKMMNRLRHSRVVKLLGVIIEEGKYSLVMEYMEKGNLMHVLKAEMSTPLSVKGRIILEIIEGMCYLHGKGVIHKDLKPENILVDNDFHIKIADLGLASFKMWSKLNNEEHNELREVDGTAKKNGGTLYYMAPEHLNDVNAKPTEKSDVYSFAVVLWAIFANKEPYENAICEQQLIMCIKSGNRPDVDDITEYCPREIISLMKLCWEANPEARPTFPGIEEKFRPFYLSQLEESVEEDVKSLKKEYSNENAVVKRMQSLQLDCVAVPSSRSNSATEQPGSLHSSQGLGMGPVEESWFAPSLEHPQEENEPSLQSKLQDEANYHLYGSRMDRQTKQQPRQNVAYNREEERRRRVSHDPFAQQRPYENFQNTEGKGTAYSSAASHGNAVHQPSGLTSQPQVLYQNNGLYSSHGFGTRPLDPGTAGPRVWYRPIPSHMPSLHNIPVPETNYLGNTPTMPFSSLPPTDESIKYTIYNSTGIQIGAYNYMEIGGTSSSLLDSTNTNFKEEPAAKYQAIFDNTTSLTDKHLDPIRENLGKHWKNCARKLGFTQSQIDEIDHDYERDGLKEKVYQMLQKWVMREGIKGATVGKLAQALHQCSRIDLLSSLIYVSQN
Method: The compound of the present invention and the control compound were dissolved in the assay buffer (50 mM Hepes pH 7.5, 50 mM NaCl, 30 mM MgCl2, 1 mM DTT, 0.02% CHAPS, 0.5 mg/mL BSA), and diluted in a ratio of 1:1.5 using a 22-point titration (high concentration 2 μM), and then added to a 384-well plate. […] After completion of the reaction, 5 μL of ADP-Glo reagent containing 0.02% CHAPS was added to each well and incubated at room temperature for 1 h to terminate the kinase reaction and use up all remaining ATP. Then, 5 μL of ADP-Glo detection solution containing 0.02% CHAPS was added to each well and incubated at room temperature for 30 min to measure the emittance intensity. For each ATP concentration, the activity data was obtained by the emittance intensity minus the control intensity.

| Structure (SMILES) | IC50 ([1]; Homo sapiens, HT-29) [nM] | IC50 ([2]; Homo sapiens, PANC-1) [nM] | IC50 (U937 cells) [nM] | IC50 (human RIP1 kinase) [nM] | also measured |
| --- | --- | --- | --- | --- | --- |
| C[C@H]1Oc2ccc(C#CCN3CCN(CC#Cc4ccc5c(c4)N(C)C(=O)[C@@H](NC(=O)c4n[nH]c(Cc6ccccc6)n4)[C@@H](C)O5)CC3)cc2N(C)C(=O)[C@H]1NC(=O)c1n[nH]c(Cc2ccccc2)n1 [Compound I-2] | 13 | 24.4 | 4.47 |  | IC50 (HacaT cells): 3.89 nM |
| CN1C(=O)[C@@H](NC(=O)c2n[nH]c(Cc3ccccc3)n2)COc2ccc(C#CCN3CCN(CC#Cc4ccc5c(c4)N(C)C(=O)[C@@H](NC(=O)c4n[nH]c(Cc6ccccc6)n4)CO5)CC3)cc21 [Compound I-11] | 10.8 | 20.4 | 2.09 |  | IC50 (HacaT cells): 2.97 nM |
| [2H]C([2H])([2H])N1C(=O)[C@@H](NC(=O)c2n[nH]c(Cc3ccccc3)n2)[C@@H](C)Oc2ccc(C#CCN3CCN(CC#C)CC3)cc21 [Compound I-14] |  |  |  | 4.52 |  |
| [2H]C([2H])([2H])N1C(=O)[C@@H](NC(=O)c2n[nH]c(Cc3ccccc3)n2)[C@@H](C)Oc2ccc(C#CCN3CCN(CC#Cc4ccc5c(c4)N(C([2H])([2H])[2H])C(=O)[C@@H](NC(=O)c4n[nH]c(Cc6ccccc6)n4)[C@@H](C)O5)CC3)cc21 [Compound I-15] |  |  |  | 4.88 |  |
| C[C@H]1Oc2ccc(C#CCN3CCN(CC#Cc4ccc5c(c4)N(C)C(=O)[C@@H](NC(=O)c4ncn(Cc6ccccc6)n4)[C@@H](C)O5)CC3)cc2N(C)C(=O)[C@H]1NC(=O)c1ncn(Cc2ccccc2)n1 [Compound I-23] | 26.4 | 17.8 | 5.91 |  | IC50 (HacaT cells): 2.68 nM |
| CN1C(=O)[C@@H](NC(=O)c2ncn(Cc3ccccc3)n2)COc2ccc(C#CCN3CCN(CC#Cc4ccc5c(c4)N(C)C(=O)[C@@H](NC(=O)c4ncn(Cc6ccccc6)n4)CO5)CC3)cc21 [Compound I-30] | 16.6 | 16 | 4.89 | 2.62 | IC50 (HacaT cells): 4.07 nM |
| [2H]C([2H])([2H])N1C(=O)[C@@H](NC(=O)c2ncn(Cc3ccccc3)n2)[C@@H](C)Oc2ccc(C#CCN3CCN(CC#C)CC3)cc21 [Compound I-35] |  |  |  | 5.89 |  |
| C[C@H]1Oc2ccc(C#CCN3CCN(CC#Cc4ccc5c(c4)NC(=O)[C@@H](NC(=O)c4ncn(Cc6ccccc6)n4)[C@@H](C)O5)CC3)cc2NC(=O)[C@H]1NC(=O)c1ncn(Cc2ccccc2)n1 [Compound I-38] |  |  |  | 4.18 |  |
| C#CCN1CCN(CC#Cc2ccc3c(c2)N(C)C(=O)[C@@H](NC(=O)c2ncn(Cc4ccccc4)n2)[C@H](C)O3)CC1 [Compound I-39] |  |  |  | 79 |  |
| C[C@@H]1Oc2ccc(C#CCN3CCN(CC#Cc4ccc5c(c4)N(C)C(=O)[C@@H](NC(=O)c4ncn(Cc6ccccc6)n4)[C@@H](C)O5)CC3)cc2N(C)C(=O)[C@H]1NC(=O)c1ncn(Cc2ccccc2)n1 [Compound I-40] |  |  |  | 66.3 |  |
| CN1C(=O)[C@@H](NC(=O)c2n[nH]c(Cc3ccccc3)n2)COc2ccc(C#CCCCCC#Cc3ccc4c(c3)N(C)C(=O)[C@@H](NC(=O)c3n[nH]c(Cc5ccccc5)n3)CO4)cc21 [Compound I-80] |  |  |  | 8.85 |  |
| C[C@H]1Oc2ccc(C#CCOCCOCCOCCOCCOCC#CC#CCOCCOCCOCCOCCOCC#Cc3ccc4c(c3)N(C)C(=O)[C@H](NC(=O)c3ncn(Cc5ccccc5)n3)[C@@H](C)O4)cc2N(C)C(=O)[C@@H]1NC(=O)c1ncn(Cc2ccccc2)n1 [Compound I-89] |  |  |  | 7.44 |  |
| CN1C(=O)[C@H](NC(=O)c2ncn(Cc3ccccc3)n2)COc2ccc(C#CCOCCOCCOCCOCCOCC#CC#CCOCCOCCOCCOCCOCC#Cc3ccc4c(c3)N(C)C(=O)[C@H](NC(=O)c3ncn(Cc5ccccc5)n3)CO4)cc21 [Compound I-90] |  |  |  | 6.29 |  |
| COCCOCCOCCOCCOCC#Cc1ccc2c(c1)N(C)C(=O)[C@@H](NC(=O)c1n[nH]c(Cc3ccccc3)n1)CO2 [Compound I-100] | 8.65 | 12.5 | 3.14 |  | IC50 (HacaT cells): 2.39 nM |
| COCCOCCOCCOCCOCC#Cc1ccc2c(c1)N(C)C(=O)[C@@H](NC(=O)c1ncn(Cc3ccccc3)n1)[C@@H](C)O2 [Compound I-101] | 10.1 | 13.7 | 5.62 |  | IC50 (HacaT cells): 2.95 nM |
| COCCOCCOCCOCCOCC#Cc1ccc2c(c1)N(C)C(=O)[C@@H](NC(=O)c1ncn(Cc3ccccc3)n1)CO2 [Compound I-102] | 7.92 | 13.8 | 2.08 |  | IC50 (HacaT cells): 3.58 nM |
| CC(O)C#Cc1ccc2c(c1)N(C)C(=O)[C@@H](NC(=O)c1ncn(Cc3ccccc3)n1)[C@@H](C)O2 (stereo partly drawn) [Compound I-104] |  |  |  | 10.2 |  |
| C[C@H]1Oc2ccc(C#Cc3ccncc3)cc2N(C)C(=O)[C@H]1NC(=O)c1n[nH]c(Cc2ccccc2)n1 [Compound I-109] | 13.1 | 12.6 |  |  |  |
| C[C@H]1Oc2ccc(C#Cc3ccncc3)cc2N(C)C(=O)[C@H]1NC(=O)c1ncn(Cc2ccccc2)n1 [Compound I-110] | 10.9 | 11.1 |  |  |  |
| C[C@H]1Oc2ccc(C#Cc3cccnc3)cc2N(C)C(=O)[C@H]1NC(=O)c1n[nH]c(Cc2ccccc2)n1 [Compound I-111] | 13.7 | 12.4 |  |  |  |
| C[C@H]1Oc2ccc(C#Cc3cccnc3)cc2N(C)C(=O)[C@H]1NC(=O)c1ncn(Cc2ccccc2)n1 [Compound I-112] |  |  |  | 7.21 | IC50 [1]: 10 nM; IC50 [2]: 11.3 nM |
| C[C@H]1Oc2ccc(C#Cc3cccc(N)c3)cc2N(C)C(=O)[C@H]1NC(=O)c1n[nH]c(Cc2ccccc2)n1 [Compound I-117] |  |  |  | 12.7 |  |
| C#Cc1ccc2c(c1)N(C)C(=O)[C@@H](NC(=O)c1nc(Cc3ccccc3)n[nH]1)[C@@H](C)O2 [Compound I-119] | 15.3 | 17.1 | 3.19 |  |  |
| C#Cc1ccc2c(c1)N(C)C(=O)[C@@H](NC(=O)c1ncn(Cc3ccccc3)n1)[C@@H](C)O2 [Compound I-120] | 14.6 | 15.7 | 4.05 |  |  |
| CN1C(=O)[C@@H](NC(=O)c2ncn(Cc3ccccc3)n2)COc2ccc(CCCN3CCN(CCCc4ccc5c(c4)N(C)C(=O)[C@@H](NC(=O)c4ncn(Cc6ccccc6)n4)CO5)CC3)cc21 [Compound I-121] |  |  | 6.12 |  |  |
| C[C@H]1Oc2ccc(CCCN3CCN(CCCc4ccc5c(c4)N(C)C(=O)[C@@H](NC(=O)c4ncn(Cc6ccccc6)n4)[C@@H](C)O5)CC3)cc2N(C)C(=O)[C@H]1NC(=O)c1ncn(Cc2ccccc2)n1 [Compound I-122] |  |  | 7.14 |  |  |
| CN1C(=O)[C@@H](NC(=O)c2n[nH]c(Cc3ccccc3)n2)COc2ccc(CCCN3CCN(CCCc4ccc5c(c4)N(C)C(=O)[C@@H](NC(=O)c4n[nH]c(Cc6ccccc6)n4)CO5)CC3)cc21 [Compound I-123] |  |  | 4.45 |  |  |
| C[C@H]1Oc2ccc(CCCN3CCN(CCCc4ccc5c(c4)N(C)C(=O)[C@@H](NC(=O)c4n[nH]c(Cc6ccccc6)n4)[C@@H](C)O5)CC3)cc2N(C)C(=O)[C@H]1NC(=O)c1n[nH]c(Cc2ccccc2)n1 [Compound I-124] |  |  | 6.75 |  |  |
| CN1C(=O)[C@@H](NC(=O)c2n[nH]c(Cc3ccccc3)n2)COc2ccccc21 [Control compound 3, reference compound] | > 100 | 51.3 | 7.15 |  | IC50 (HacaT cells): 9.92 nM |
